Results on 13 molecules are retold here after US9975888B2, “Aryl linked imidazole and triazole derivatives and methods of use thereof for improving the pharmacokinetics of a drug” (MERCK SHARP & DOHME CORP., priority 2013, dated 2018).

Where only a bound is given, the exact number is not on record here.

Common to all, as to format: biochemical
The target in one experiment is T1, CYP2C9 (Homo sapiens, UniProt P11712).
T1 construct: 0.1 mg/mL protein human liver microsomes (BD Gentest); tissue BD Gentest; host or cells: human liver microsomes
T1 sequence (P11712 whole entry): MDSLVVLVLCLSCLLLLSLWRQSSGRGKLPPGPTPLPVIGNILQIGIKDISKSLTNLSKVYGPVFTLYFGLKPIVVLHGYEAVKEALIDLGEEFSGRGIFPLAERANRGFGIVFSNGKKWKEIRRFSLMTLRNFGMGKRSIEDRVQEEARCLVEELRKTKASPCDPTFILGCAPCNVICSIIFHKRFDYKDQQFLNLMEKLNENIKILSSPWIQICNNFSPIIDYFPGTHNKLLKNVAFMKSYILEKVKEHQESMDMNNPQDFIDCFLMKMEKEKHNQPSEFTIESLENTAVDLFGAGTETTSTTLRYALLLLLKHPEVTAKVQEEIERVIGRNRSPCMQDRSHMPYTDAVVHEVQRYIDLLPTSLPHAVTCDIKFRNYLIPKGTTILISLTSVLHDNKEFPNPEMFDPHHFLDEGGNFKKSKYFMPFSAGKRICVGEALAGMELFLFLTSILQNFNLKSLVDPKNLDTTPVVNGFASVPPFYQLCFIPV
Put plainly: Cocktail assay for CYPs, diclofenac 4′-hydroxylation (CYP2C9), human liver microsomes. Conditions: 5 μM diclofenac, 0.1 mg/mL human liver microsomes, 10 min at 37° C.; read-out: CYP IC50 (nM) 2C9. The procedure, abridged:
(§1)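 Pooled human liver microsomes (0.1 mg/mL) with probe cocktail incl. 5 μM diclofenac (CYP2C9) and 30 μM mephenytoin (CYP2C19), 1 mM NADPH, pH 7.4 phosphate buffer, 10 min at 37° C. Metabolites quantified by LC/MS/MS against internal standard; % inhibition versus no-inhibitor control, IC50 by non-linear regression.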
(Liver microsomes are vesicles of endoplasmic reticulum, rich in cytochrome P450 enzymes.)

The target of experiment [1] is T2, CYP3A4 (Homo sapiens, UniProt P08684). As to the kind of experiment: Cocktail assay for CYPs, midazolam 1′-hydroxylation (CYP3A4), human liver microsomes. Set-up: 0.1 mg/mL protein human liver microsomes (BD Gentest); tissue BD Gentest; host or cells: human liver microsomes. To be noted: 2 μM midazolam, 0.1 mg/mL human liver microsomes, 10 min at 37° C.; read-out: CYP IC50 (nM) 3A4 (MDZ). The procedure, abridged: (§2)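 Pooled human liver microsomes (0.1 mg/mL) with a probe cocktail of 10 μM phenacetin, 5 μM dextromethorphan and 2 μM midazolam plus NADPH, pH 7.4, 10 min at 37° C. Each metabolite was quantified by LC/MS/MS against a tolbutamide internal standard. IC50 came from % inhibition at 6 concentrations (e.g. 0.0032–10 μM) by non-linear regression.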
Target sequence in this assay (P08684 whole entry): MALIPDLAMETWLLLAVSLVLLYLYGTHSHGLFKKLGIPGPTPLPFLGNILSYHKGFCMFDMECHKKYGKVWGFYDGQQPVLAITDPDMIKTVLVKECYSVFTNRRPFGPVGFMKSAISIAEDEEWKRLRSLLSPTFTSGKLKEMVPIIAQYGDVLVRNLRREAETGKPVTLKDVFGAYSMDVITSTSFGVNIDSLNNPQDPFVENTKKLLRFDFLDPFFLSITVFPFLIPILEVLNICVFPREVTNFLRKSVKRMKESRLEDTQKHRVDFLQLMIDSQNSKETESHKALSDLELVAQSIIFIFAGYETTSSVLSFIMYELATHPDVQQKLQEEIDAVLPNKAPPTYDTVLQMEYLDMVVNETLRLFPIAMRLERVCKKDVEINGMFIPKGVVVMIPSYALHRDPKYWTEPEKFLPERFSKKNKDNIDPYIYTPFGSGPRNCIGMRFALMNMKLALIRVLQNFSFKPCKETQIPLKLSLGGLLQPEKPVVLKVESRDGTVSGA

In a further experiment the target is T3, CYP2C19 (Homo sapiens, UniProt P33261).
T3 construct: 0.1 mg/mL protein human liver microsomes (BD Gentest); tissue BD Gentest; host or cells: human liver microsomes
T3 sequence (P33261 whole entry): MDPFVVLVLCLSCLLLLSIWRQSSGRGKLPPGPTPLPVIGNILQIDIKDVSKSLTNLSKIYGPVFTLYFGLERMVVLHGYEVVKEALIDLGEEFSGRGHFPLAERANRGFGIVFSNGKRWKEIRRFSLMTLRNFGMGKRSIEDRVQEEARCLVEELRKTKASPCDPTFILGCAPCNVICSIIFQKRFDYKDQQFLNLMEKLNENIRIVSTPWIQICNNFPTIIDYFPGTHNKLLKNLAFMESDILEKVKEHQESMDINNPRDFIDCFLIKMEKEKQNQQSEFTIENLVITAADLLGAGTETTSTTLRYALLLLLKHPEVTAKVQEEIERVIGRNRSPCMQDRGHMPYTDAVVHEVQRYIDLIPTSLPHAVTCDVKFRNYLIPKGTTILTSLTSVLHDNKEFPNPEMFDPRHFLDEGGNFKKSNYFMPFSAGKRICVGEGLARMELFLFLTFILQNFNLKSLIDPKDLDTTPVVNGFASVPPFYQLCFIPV
As to the kind of experiment: Cocktail assay for CYPs, mephenytoin 4′-hydroxylation (CYP2C19), human liver microsomes. To be noted: 30 μM mephenytoin, 0.1 mg/mL human liver microsomes, 10 min at 37° C.; read-out: CYP IC50 (nM) 2C19. The method in brief: as §1

Experiment [2] addresses T2, CYP3A4. Put plainly: IC50 vs CYP3A by inhibition of lopinavir metabolism in human liver microsomes. On the set-up: 0.01 mg/mL protein human liver microsomes (BD Gentest); tissue BD Gentest; host or cells: human liver microsomes. Conditions: 1.5 μM lopinavir, 0.01 mg/mL human liver microsomes, 8 min at 37° C.; read-out: CYP IC50 (nM) 3A4 (LPV). The method in brief:
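Human liver microsomes (0.01 mg/mL) with 1.5 μM lopinavir, 1 mM NADPH, 3.3 mM MgCl2 in 100 mM potassium phosphate pH 7.4, 8 min at 37 °C, six compound concentrations. Summed M2/M3/M4 hydroxy metabolites quantified by LC/MS/MS against tolbutamide; % inhibition normalised between no-inhibitor and 5 μM ketoconazole controls, IC50 by non-linear regression.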
Target sequence in this assay (P08684 2-503): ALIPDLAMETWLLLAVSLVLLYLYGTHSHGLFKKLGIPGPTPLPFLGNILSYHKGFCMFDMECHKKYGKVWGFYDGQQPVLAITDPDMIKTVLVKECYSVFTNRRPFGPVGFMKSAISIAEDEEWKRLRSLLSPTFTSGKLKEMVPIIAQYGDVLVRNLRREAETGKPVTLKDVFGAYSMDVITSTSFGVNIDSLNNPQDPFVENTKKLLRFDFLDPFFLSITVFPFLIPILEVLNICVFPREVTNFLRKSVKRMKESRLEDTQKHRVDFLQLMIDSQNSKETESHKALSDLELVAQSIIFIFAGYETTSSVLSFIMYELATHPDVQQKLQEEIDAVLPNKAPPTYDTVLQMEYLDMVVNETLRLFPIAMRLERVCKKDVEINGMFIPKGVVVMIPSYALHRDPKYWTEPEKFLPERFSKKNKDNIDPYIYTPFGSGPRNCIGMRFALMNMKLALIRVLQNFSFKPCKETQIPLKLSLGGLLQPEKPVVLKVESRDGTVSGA

For another experiment, the target named is T4, CYP1A2 (Homo sapiens, UniProt P05177).
T4 construct: 0.1 mg/mL protein human liver microsomes (BD Gentest); tissue BD Gentest; host or cells: human liver microsomes
T4 sequence (P05177 1-516): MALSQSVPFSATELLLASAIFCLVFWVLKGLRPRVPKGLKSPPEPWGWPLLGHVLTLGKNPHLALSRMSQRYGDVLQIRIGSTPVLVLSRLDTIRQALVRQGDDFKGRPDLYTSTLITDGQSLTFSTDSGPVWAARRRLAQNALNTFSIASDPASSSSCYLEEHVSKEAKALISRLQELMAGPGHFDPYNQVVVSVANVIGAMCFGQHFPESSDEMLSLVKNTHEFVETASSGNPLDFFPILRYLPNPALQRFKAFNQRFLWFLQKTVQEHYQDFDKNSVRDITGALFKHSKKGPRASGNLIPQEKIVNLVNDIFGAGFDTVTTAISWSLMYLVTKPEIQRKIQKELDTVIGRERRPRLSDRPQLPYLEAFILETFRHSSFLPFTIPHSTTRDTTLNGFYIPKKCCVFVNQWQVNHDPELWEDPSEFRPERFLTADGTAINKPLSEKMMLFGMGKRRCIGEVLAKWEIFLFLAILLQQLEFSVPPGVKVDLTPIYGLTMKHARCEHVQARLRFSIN
Put plainly: Cocktail assay for CYPs, phenacetin O-deethylation (CYP1A2), human liver microsomes. To be noted: 10 μM phenacetin, 0.1 mg/mL human liver microsomes, 10 min at 37° C.; read-out: CYP IC50 (nM) 1A2. The procedure, abridged: as §2

The next experiment addresses T5, CYP2D6 (Homo sapiens, UniProt P10635).
T5 construct: 0.1 mg/mL protein human liver microsomes (BD Gentest); tissue BD Gentest; host or cells: human liver microsomes
Put plainly: Cocktail assay for CYPs, dextromethorphan O-demethylation (CYP2D6), human liver microsomes. Conditions: 5 μM dextromethorphan, 0.1 mg/mL human liver microsomes, 10 min at 37° C.; read-out: CYP IC50 (nM) 2D6. The method in brief: as §2

T5 sequence (P10635 whole entry): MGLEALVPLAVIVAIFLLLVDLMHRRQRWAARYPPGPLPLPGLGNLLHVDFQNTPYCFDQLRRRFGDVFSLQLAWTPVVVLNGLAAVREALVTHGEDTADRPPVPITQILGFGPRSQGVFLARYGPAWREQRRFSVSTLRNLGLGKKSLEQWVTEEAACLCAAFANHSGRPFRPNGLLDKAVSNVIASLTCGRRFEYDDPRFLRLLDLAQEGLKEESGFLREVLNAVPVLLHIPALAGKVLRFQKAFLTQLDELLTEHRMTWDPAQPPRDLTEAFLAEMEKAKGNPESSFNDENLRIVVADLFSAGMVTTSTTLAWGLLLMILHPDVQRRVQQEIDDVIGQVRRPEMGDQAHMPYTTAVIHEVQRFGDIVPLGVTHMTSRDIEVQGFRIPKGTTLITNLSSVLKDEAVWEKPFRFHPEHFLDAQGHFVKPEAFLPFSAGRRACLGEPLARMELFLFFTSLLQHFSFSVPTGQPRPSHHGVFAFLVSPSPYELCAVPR

As a reminder, the IC50 is the point on the concentration scale where inhibition reaches its midpoint. `O=C(NCc1ccc(S(=O)(=O)N2CCCC2c2cccc(-c3cncn3CCc3ccc(F)cc3)c2)s1)c1ccccc1` (single isomer, unassigned) [Compound 55b, (R or S)-N-((5-((2-(3-(1-(4-fluorophenethyl)-1H-imidazol-5-yl)phenyl)pyrrolidin-1-yl)sulfonyl)thiophen-2-yl)methyl) benzamide]: the IC50 at CYP2C9 is 63.8 nM; on CYP3A4 [1], 5.1 nM; on CYP2C19, 56 nM; on CYP3A4 [2], 0.92 nM; on CYP1A2, 158 nM; at CYP2D6, 163 nM.
In the case of `O=S(=O)(c1ccc(N2CCOCC2)nc1)N1CCc2c(cccc2-c2cncn2CCc2ccc(F)cc2)C1` [Compound 60, 4-(5-((5-(1-(4-fluorophenethyl)-1H-imidazol-5-yl)-3,4-dihydroisoquinolin-2(1H)-yl)sulfonyl)pyridin-2-yl) morpholine], the half-maximal inhibitory concentration (IC50) on CYP2C9 was 1350 nM; on CYP3A4 [1] it was 6.2 nM; on CYP2C19, 53 nM; at CYP3A4 [2] it was 1.8 nM; on CYP1A2, above 10000 nM; at CYP2D6 it was 2210 nM.
`O=S(=O)(c1cnc(N2CCN3C[C@H](O)C[C@H]3C2)s1)N1CCCC1c1ccccc1-c1cncn1CCc1ccc(F)cc1` (single isomer, unassigned) [Compound 22b, (7R,8aS)-2-(5-(((R or S)-2-(2-(1-(4-fluoro-phenethyl)-1H-imidazol-5-yl)phenyl)pyrrolidin-1-yl)sulfonyl)thiazol-2-yl) octahydro-pyrrolo[1,2-a] pyrazin-7-ol]: the IC50 was 1690 nM at CYP2C9; 9.6 nM at CYP3A4 [1]; above 10000 nM at CYP2C19; 4.5 nM on CYP3A4 [2]; above 10000 nM at CYP1A2; 4620 nM at CYP2D6.
With `O=C(C1CCOCC1)N1CCCC1c1cccc(-c2cncn2CCc2ccc(F)cc2)c1` (single isomer, unassigned) [Compound 49a, (R or S)-(2-(3-(1-(4-fluorophenethyl)-1H-imidazol-5-yl)phenyl)pyrrolidin-1-yl)(tetrahydro-2H-pyran-4-yl)methanone], the IC50 is 9740 nM at CYP2C9; 30.1 nM on CYP3A4 [1]; 3830 nM at CYP2C19; 29.6 nM on CYP3A4 [2]; above 10000 nM on CYP1A2; 4700 nM at CYP2D6.
On to `CC(=O)Nc1ncc(S(=O)(=O)NC(C)(C)c2ccccc2-c2cncn2CCc2ccc(F)cc2)s1` [Compound 7, N-(5-(N-(2-(2-(1-(4-fluorophenethyl)-1H-imidazol-5-yl)phenyl)propan-2-yl)sulfamoyl)thia-zol-2-yl)acetamide], for which the IC50 was 5990 nM on CYP2C9; 22.9 nM on CYP3A4 [1]; 3180 nM at CYP2C19; 10.6 nM at CYP3A4 [2]; 6070 nM at CYP1A2; 2880 nM at CYP2D6.
Consider `CC(=O)Nc1ncc(S(=O)(=O)N2CCCC2c2ccccc2-c2cncn2C)s1` (stereo not drawn) [Compound 30, N-(5-((2-(2-(1-methyl-1H-imidazol-5-yl)phenyl)pyrrolidin-1-yl)sulfonyl)thiazol-2-yl) acetamide], for which the IC50 at CYP2C9 was above 10000 nM; on CYP3A4 [1] it was 18.8 nM; at CYP2C19, above 10000 nM; at CYP3A4 [2] it was 37.7 nM; at CYP1A2 it was above 10000 nM; at CYP2D6, above 10000 nM.
As for `CC(=O)Nc1ncc(S(=O)(=O)NCc2ccccc2-c2cncn2CCc2ccc(F)cc2)s1` [Compound 18, N-(5-(N-(2-(1-(4-fluorophenethyl)-1H-imidazol-5-yl)benzyl)sulfamoyl)thiazol-2-yl) acetamide], the IC50 at CYP2C9 is above 10000 nM; at CYP3A4 [1], 15.8 nM; on CYP2C19 it was 2930 nM; on CYP3A4 [2], 18.6 nM; at CYP1A2 it was above 10000 nM; at CYP2D6, 7180 nM.
For `O=S(=O)(c1ccc(NCC(O)C2CC2)nc1)N1CCCC1c1ccccc1-c1cncn1CCc1ccc(F)cc1` (single isomer, unassigned) [Compound 34b, 1-cyclopropyl-2-((5-(((R or S)-2-(2-(1-(4-fluorophenethyl)-1H-imidazol-5-yl)phenyl)pyrrolidin-1-yl)sulfonyl)pyridin-2-yl)amino)ethanol], the IC50 on CYP2C9 is 1900 nM; at CYP3A4 [1] it was 5.5 nM; on CYP2C19 it was 4400 nM; at CYP3A4 [2], 1 nM; at CYP1A2, above 10000 nM; on CYP2D6 it was 2420 nM.
Consider `CC(=O)Nc1ncc(S(=O)(=O)N2Cc3cccc(-c4cncn4CCc4ccc(F)cc4)c3C2)s1` [Compound 15, N-(5-((4-(1-(4-fluorophenethyl)-1H-imidazol-5-yl)isoindolin-2-yl)sulfonyl)thiazol-2-yl)acetamide], for which the IC50 is 1230 nM at CYP2C9; 6.4 nM at CYP3A4 [1]; 155 nM at CYP2C19; 8 nM at CYP3A4 [2]; above 10000 nM on CYP1A2; 1400 nM on CYP2D6.
As for `O=S(=O)(c1ccc(N2CCOCC2)nc1)N1CCCC1c1ccccc1-c1cncn1CCc1ccc(F)cc1` (stereo not drawn) [Compound 29, 4-(5-((2-(2-(1-(4-fluorophenethyl)-1H-imidazol-5-yl)phenyl)pyrrolidin-1-yl)sulfonyl)pyridin-2-yl)morpholine], the IC50 is 1860 nM on CYP2C9; 8.3 nM on CYP3A4 [1]; 3260 nM at CYP2C19; 7.6 nM on CYP3A4 [2]; 3820 nM at CYP1A2; 2930 nM at CYP2D6.
With `O=C(C1CC1)N1CCCC1c1ccccc1-c1cncn1CCc1ccc(F)cc1` (single isomer, unassigned) [Compound 44b, (R or S)-cyclopropyl(2-(2-(1-(4-fluorophenethyl)-1H-imidazol-5-yl)phenyl)pyrrolidin-1-yl)methanone], the IC50 is 5900 nM at CYP2C9; 6.7 nM at CYP3A4 [1]; 7130 nM on CYP2C19; 6.4 nM at CYP3A4 [2]; above 10000 nM on CYP1A2; above 10000 nM on CYP2D6.
As to `CC(C)NC(=O)N1CCCC1c1cccc(-c2cncn2CCc2ccc(F)cc2)c1` (stereo not drawn) [Compound 50, 2-(3-(1-(4-fluorophenethyl)-1H-imidazol-5-yl)phenyl)-N-isopropyl-pyrrolidine-1-carboxamide], the IC50 is 4180 nM at CYP2C9; 9.4 nM at CYP3A4 [1]; 2070 nM at CYP2C19; 14.2 nM at CYP3A4 [2]; 5750 nM at CYP1A2; at least 10000 nM at CYP2D6.
For `Fc1ccc(CCn2cncc2-c2ccccc2C2CCCN2)cc1` (stereo not drawn) [Compound 40, 1-(4-fluorophenethyl)-5-(2-(pyrrolidin-2-yl)phenyl)-1H-imidazole], the IC50 is 4560 nM on CYP2C9; 43.4 nM at CYP3A4 [1]; above 10000 nM on CYP2C19; 27.4 nM at CYP3A4 [2]; above 10000 nM at CYP1A2; 3300 nM on CYP2D6.
